According to US5053070A, “Pyrimidine derivatives, preparation processes thereof, herbicide containing the same, and herbicidal compositions containing the same along with other active ingredient” (Mitsui Toatsu Chemicals, Incorporated, priority 1988, dated 1991):

Columns and labels:
barnyardgrass [1] = test: Upland foliar application test (Test 3); assay type: in vivo; conditions: 30 g ai/a, foliar spray at 2-3 leaves, 30th day
In short: (§1)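 Scores record the degree of damage to weeds and injury to crops, observed 30 days after treatment. Each species was seeded in pots of upland-field soil and raised under glass to 2-3 leaves, then its foliage was sprayed with diluted compound emulsion at 5 l per are.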

foxtail meadow [2] = test: Upland foliar application test (Test 3); assay type: in vivo; conditions: 30 g ai/a, foliar spray at 2-3 leaves, 30th day
In short: as §1

redroot pigweed [3] = test: Upland foliar application test (Test 3); assay type: in vivo; conditions: 30 g ai/a, foliar spray at 2-3 leaves, 30th day
In short: as §1

johnsongrass [4] = test: Upland foliar application test (Test 3); assay type: in vivo; conditions: 30 g ai/a, foliar spray at 2-3 leaves, 30th day
In short: as §1

common lambsquarters [5] = test: Upland foliar application test (Test 3); assay type: in vivo; conditions: 30 g ai/a, foliar spray at 2-3 leaves, 30th day
In short: as §1

green foxtail [6] = test: Upland foliar application test (Test 3); assay type: in vivo; conditions: 30 g ai/a, foliar spray at 2-3 leaves, 30th day
In short: as §1

large crabgrass [7] = test: Upland foliar application test (Test 3); assay type: in vivo; conditions: 30 g ai/a, foliar spray at 2-3 leaves, 30th day
In short: as §1

rice = test: Treatment of soil under submerged condition, pre-emergence (Test 4), injury; assay type: in vivo; conditions: 30 g ai/a granule, 30 days later
In short: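 First, weed seeds or tubers are sown in soil kept submerged. Next, two pairs of rice seedlings at the 2–3 leaf stage are transplanted per pot and kept in a greenhouse. After one day, before weeds emerge, a granular formulation is applied; damage and injury are rated after 30 days.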

[8] = system: ALS (acetolactate syntase); test: ALS enzyme assay (Test 1); assay type: biochemical, pea; conditions: 1,000 ppm (0.5 mg/0.5 ml)
In short: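 Partially purified ALS from dark-grown pea and barnyardgrass seedlings incubated 1 h at 30° C with pyruvate, TPP, MgCl2 and FAD. Compounds tested at 1,000 ppm (0.5 mg/0.5 ml). Acetoin formed detected colorimetrically at 525 nm via creatine/α-naphthol, relative to blank and acid-stopped controls.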

barnyardgrass [9] = test: Upland soil application test (Test 2); assay type: in vivo; conditions: 30 g ai/a, soil spray before emergence, 30 days later
In short: (§2)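 Damage was graded 30 days after treatment by comparing air-dried plant weight with that of plants in untreated pots. Test compound, given as a diluted wettable powder, had been sprayed on the soil surface one day after sowing, before any weeds emerged.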

foxtail meadow [10] = test: Upland soil application test (Test 2); assay type: in vivo; conditions: 30 g ai/a, soil spray before emergence, 30 days later
In short: as §2

redroot pigweed [11] = test: Upland soil application test (Test 2); assay type: in vivo; conditions: 30 g ai/a, soil spray before emergence, 30 days later
In short: as §2

johnsongrass [12] = test: Upland soil application test (Test 2); assay type: in vivo; conditions: 30 g ai/a, soil spray before emergence, 30 days later
In short: as §2

common lambsquarters [13] = test: Upland soil application test (Test 2); assay type: in vivo; conditions: 30 g ai/a, soil spray before emergence, 30 days later
In short: as §2

green foxtail [14] = test: Upland soil application test (Test 2); assay type: in vivo; conditions: 30 g ai/a, soil spray before emergence, 30 days later
In short: as §2

large crabgrass [15] = test: Upland soil application test (Test 2); assay type: in vivo; conditions: 30 g ai/a, soil spray before emergence, 30 days later
In short: as §2

| SMILES | Herbicidal effects Barnyardgrass (barnyardgrass [1]) | Herbicidal effects Foxtail meadow (foxtail meadow [2]) | Herbicidal effects Redroot pigweed (redroot pigweed [3]) | Herbicidal effects Johnsongrass (johnsongrass [4]) | Herbicidal effects Common lambsquarters (common lambsquarters [5]) | Herbicidal effects Green foxtail (green foxtail [6]) | Herbicidal effects Large crabgrass (large crabgrass [7]) | Injury Rice (rice) | Inhibitory activity (%) Pea [8] [%] | Herbicidal effects Barnyardgrass (barnyardgrass [9]) | Herbicidal effects Foxtail meadow (foxtail meadow [10]) | Herbicidal effects Redroot pigweed (redroot pigweed [11]) | Herbicidal effects Johnsongrass (johnsongrass [12]) | Herbicidal effects Common lambsquarters (common lambsquarters [13]) | Herbicidal effects Green foxtail (green foxtail [14]) | Herbicidal effects Large crabgrass (large crabgrass [15]) |
| --- | --- | --- | --- | --- | --- | --- | --- | --- | --- | --- | --- | --- | --- | --- | --- | --- |
| CCCC=CCON=Cc1ccccc1Oc1nc(OC)cc(OC)n1 [compound 25] | 4 (6-10 (Severe damages)) | 5 (0-5 (Death)) | 4 (6-10 (Severe damages)) | 5 (0-5 (Death)) | 4 (6-10 (Severe damages)) | 5 (0-5 (Death)) | 5 (0-5 (Death)) | 1 (71-90 (Slight damages)) | 0 | 4 (6-10 (Severe damages)) | 5 (0-5 (Death)) | 4 (6-10 (Severe damages)) | 5 (0-5 (Death)) | 4 (6-10 (Severe damages)) | 5 (0-5 (Death)) | 5 (0-5 (Death)) |
| COc1cc(OC)nc(Oc2ccccc2C=NOCC=Cc2ccc(F)cc2)n1 [compound 29] | 5 (0-5 (Death)) | 4 (6-10 (Severe damages)) | 5 (0-5 (Death)) | 5 (0-5 (Death)) | 4 (6-10 (Severe damages)) | 4 (6-10 (Severe damages)) | 4 (6-10 (Severe damages)) | 0 (91-100 (No damages)) | 11 | 5 (0-5 (Death)) | 4 (6-10 (Severe damages)) | 5 (0-5 (Death)) | 5 (0-5 (Death)) | 4 (6-10 (Severe damages)) | 4 (6-10 (Severe damages)) | 5 (0-5 (Death)) |
| COc1cc(OC)nc(Oc2ccccc2C=NOCC=Cc2ccc(Cl)cc2Cl)n1 [compound 30] | 5 (0-5 (Death)) | 5 (0-5 (Death)) | 5 (0-5 (Death)) | 5 (0-5 (Death)) | 4 (6-10 (Severe damages)) | 5 (0-5 (Death)) | 5 (0-5 (Death)) | 0 (91-100 (No damages)) | 6 | 5 (0-5 (Death)) | 5 (0-5 (Death)) | 5 (0-5 (Death)) | 5 (0-5 (Death)) | 4 (6-10 (Severe damages)) | 5 (0-5 (Death)) | 5 (0-5 (Death)) |
| COc1cc(OC)nc(Oc2ccccc2C=NOCC=Cc2ccc(Cl)c(Cl)c2)n1 [compound 31] | 4 (6-10 (Severe damages)) | 4 (6-10 (Severe damages)) | 3 (11-40 (Medium damages)) | 5 (0-5 (Death)) | 4 (6-10 (Severe damages)) | 4 (6-10 (Severe damages)) | 4 (6-10 (Severe damages)) | 0 (91-100 (No damages)) | 0 | 4 (6-10 (Severe damages)) | 4 (6-10 (Severe damages)) | 3 (11-40 (Medium damages)) | 5 (0-5 (Death)) | 3 (11-40 (Medium damages)) | 4 (6-10 (Severe damages)) | 4 (6-10 (Severe damages)) |
| COc1cc(OC)nc(Oc2ccccc2C=NOCC=Cc2ccccc2C(F)(F)F)n1 [compound 32] | 5 (0-5 (Death)) | 5 (0-5 (Death)) | 5 (0-5 (Death)) | 5 (0-5 (Death)) | 4 (6-10 (Severe damages)) | 5 (0-5 (Death)) | 5 (0-5 (Death)) | 0 (91-100 (No damages)) | 0 | 5 (0-5 (Death)) | 5 (0-5 (Death)) | 5 (0-5 (Death)) | 5 (0-5 (Death)) | 4 (6-10 (Severe damages)) | 5 (0-5 (Death)) | 5 (0-5 (Death)) |
| COc1cc(OC)nc(Oc2ccccc2C=NOCC=Cc2c(F)cccc2F)n1 [compound 33] | 5 (0-5 (Death)) | 5 (0-5 (Death)) | 4 (6-10 (Severe damages)) | 5 (0-5 (Death)) | 4 (6-10 (Severe damages)) | 5 (0-5 (Death)) | 5 (0-5 (Death)) | 0 (91-100 (No damages)) | 0 | 5 (0-5 (Death)) | 5 (0-5 (Death)) | 4 (6-10 (Severe damages)) | 5 (0-5 (Death)) | 4 (6-10 (Severe damages)) | 5 (0-5 (Death)) | 5 (0-5 (Death)) |
| COc1cc(OC)nc(Oc2ccccc2C=NOCC=Cc2ccc(C(F)(F)F)cc2)n1 [compound 35] | 5 (0-5 (Death)) | 5 (0-5 (Death)) | 4 (6-10 (Severe damages)) | 5 (0-5 (Death)) | 4 (6-10 (Severe damages)) | 5 (0-5 (Death)) | 5 (0-5 (Death)) | 0 (91-100 (No damages)) | 10 | 5 (0-5 (Death)) | 5 (0-5 (Death)) | 4 (6-10 (Severe damages)) | 5 (0-5 (Death)) | 5 (0-5 (Death)) | 5 (0-5 (Death)) | 5 (0-5 (Death)) |
| COc1cc(OC)nc(Oc2ccccc2C=NOCC=Cc2ccc(C)cc2)n1 [compound 36] | 5 (0-5 (Death)) | 5 (0-5 (Death)) | 4 (6-10 (Severe damages)) | 5 (0-5 (Death)) | 4 (6-10 (Severe damages)) | 5 (0-5 (Death)) | 5 (0-5 (Death)) | 0 (91-100 (No damages)) | 0 | 5 (0-5 (Death)) | 5 (0-5 (Death)) | 4 (6-10 (Severe damages)) | 5 (0-5 (Death)) | 4 (6-10 (Severe damages)) | 5 (0-5 (Death)) | 5 (0-5 (Death)) |
| CCc1ccc(C=CCON=Cc2ccccc2Oc2nc(OC)cc(OC)n2)cc1 [compound 37] | 4 (6-10 (Severe damages)) | 5 (0-5 (Death)) | 4 (6-10 (Severe damages)) | 5 (0-5 (Death)) | 4 (6-10 (Severe damages)) | 5 (0-5 (Death)) | 5 (0-5 (Death)) | 0 (91-100 (No damages)) | 0 | 4 (6-10 (Severe damages)) | 5 (0-5 (Death)) | 4 (6-10 (Severe damages)) | 5 (0-5 (Death)) | 4 (6-10 (Severe damages)) | 5 (0-5 (Death)) | 5 (0-5 (Death)) |
